{"source": "paper PMC10784415", "about": "(Developmental dynamics : an official publication of the …, 2023)", "origin": "cited, not measured here", "tested_on": "tooth buds", "conditions": "animal studies; cited from earlier work", "data": [{"compound": "COc1cc2nccc(Oc3ccc(NC(=O)Nc4cc(C)on4)c(Cl)c3)c2cc1OC", "note": "[tivozanib]", "values": [{"measurement": "Effect on tooth buds", "value": "shallower or narrower tooth buds"}]}]}
